Test results published in patent US20260137642A1 (CANCER PREVENTION PHARMACEUTICALS, INC., priority 2021, published 2026).

What was measured:
RINm5F insulinoma cells = conditions: cited from earlier work
T cells = conditions: mice; cited from earlier work
urinary polyamines = experiment: Phase I/II trial in new onset T1D: urinary polyamines (first morning urine, HPLC); format: in vivo, human; conditions: 3 months
Experimental: (§1) This study was double-blind, placebo-controlled, 2:1 random assigned, phase I/II clinic trial for individuals with type 1 diabetes. The blinded dose-ranging study enrolled persons with new onset T1D with documented continued residual C-peptide production. […] After a 3 month wash-out period, the durability of effect was assessed. [table]

C-peptide = experiment: Phase I/II trial in new onset T1D: C-peptide by 2-h MMTT; format: in vivo, human; conditions: for C-peptide area under the curve values compared to the placebo group: 6-month post-randomization visit
Experimental: as §1

islet replication = conditions: in vitro; cited from earlier work

Structure (SMILES): NCCCC(N)(C(=O)O)C(F)F (centres unmarked) [eflornithine, 2,5-diamino-2-(difluoromethyl) pentanoic acid]
- Insulin content and secretion (RINm5F insulinoma cells): improves insulin content and secretion
- Effect on T cells (T cells): deplete T cells
- Change in urinary polyamines with increasing drug dose across groups (urinary polyamines; 125-1000 mg/m^2): Decreases in urinary polyamines
- 3-month urinary Decarboxylated AdoMet, Least Square Means (urinary polyamines; Drug Dose 125): 133.0 µmol/g
- 3-month urinary Putrescine, Least Square Means (urinary polyamines; Drug Dose 125): 127.9 µmol/g
- 3-month urinary Decarboxylated AdoMet, Least Square Means (urinary polyamines; Drug Dose 250): 87.7 µmol/g
- 3-month urinary Putrescine, Least Square Means (urinary polyamines; Drug Dose 250): 78.0 µmol/g
- 3-month urinary Decarboxylated AdoMet, Least Square Means (urinary polyamines; Drug Dose 500): 114.3 µmol/g
- 3-month urinary Putrescine, Least Square Means (urinary polyamines; Drug Dose 500): 41.8 µmol/g
- 3-month urinary Decarboxylated AdoMet, Least Square Means (urinary polyamines; Drug Dose 750): 116.0 µmol/g
- 3-month urinary Putrescine, Least Square Means (urinary polyamines; Drug Dose 750): 56.6 µmol/g
- 3-month urinary Decarboxylated AdoMet, Least Square Means (urinary polyamines; Drug Dose 1000): 165.7 µmol/g
- 3-month urinary Putrescine, Least Square Means (urinary polyamines; Drug Dose 1000): 35.7 µmol/g
- C-peptide area under the curve values compared to the placebo group (C-peptide; 750 mg/m^2 dose): significantly higher
- C-peptide area under the curve values compared to the placebo group (C-peptide; 1000 mg/m^2 dose): significantly higher
- β cell function compared to placebo (C-peptide; at higher doses, 3-month oral course): greater β cell function compared to placebo
- Effect on islet replication (islet replication): little effect on islet replication
